The results in this text go back to the supplement of paper PMC10331698.

What all share (experiment): level (log10 ratio to DMSO vehicle control); higher = higher biomarker level / cell amount than vehicle control
Details in all cases: in DMSO

Compound in assay [1]: C=CC(=O)OCC(F)(F)C(F)(F)C(F)(F)C(F)(F)C(F)(F)C(F)(F)C(F)(F)F [1H,1H-Perfluorooctyl acrylate]
As for the experimental part:
(§1)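 BioMAP Diversity Plus panel of 12 human primary cell co-culture systems (3C, 4H, LPS, SAg, BT, BF4T, BE3C, CASM3C, HDF3CGF, KF3CT, MyoF, Mphg). Compounds were added 1 h before stimulation and left for 24 h (MyoF 48 h; BT 72 h for soluble read-outs or 6 d for IgG). Biomarkers were read by ELISA, cytotoxicity by SRB, PBMC viability and proliferation by Alamar Blue. Each well value was divided by the mean of 8 DMSO control wells on the same plate and log10 transformed; duplicate blinded samples were tested at 4 concentrations.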

Compound in assay [2]: COC(=O)CCC(F)(F)C(F)(F)C(F)(F)C(F)(F)F [Methyl 2H,2H,3H,3H-perfluoroheptanoate]
As for the experimental part: as §1

Compound in assay [3]: FC(F)(F)C(F)(C(F)(F)F)C(F)(F)C(F)(F)CC1CO1 [3-(Perfluoro-3-methylbutyl)-1,2-propenoxide]
On the procedure: as §1

Compound in the next assay: NC(=O)C(F)(F)C(F)(F)C(F)(F)F [Heptafluorobutyramide]
As for the experimental part: as §1

Compound in a further assay: NC(=O)C(F)(F)C(F)(F)F [Pentafluoropropionamide]
As for the experimental part: as §1

Compound in assay [4]: O=C(O)C(F)(F)C(F)(F)C(F)(F)OC(F)(C(F)(F)F)C(F)(F)F [Perfluoro-4-isopropoxybutanoic acid]
On the procedure:
as §1

Compound in assay [5]: OCCC(F)(F)C(F)(F)C(F)(F)C(F)(F)C(F)(F)C(F)(F)F [6:2 Fluorotelomer alcohol]
As for the experimental part:
as §1

± gives the standard deviation of the averaged measurements.

Take lMphg:CXCL8/IL-8: the “level (log10)” value in assay [1] (6700 nM) is 0.0185 ± 0.005; in assay [1] (20000 nM), 0.029 ± 0.0071; in assay [1] (60000 nM), 0.0295 ± 0.005; in assay [2] (6700 nM), -0.0045 ± 0.018; in assay [2] (20000 nM) it was -0.0025 ± 0.0064; in assay [2] (60000 nM) it was -0.0005 ± 0.018. For the same test system, the “level (log10)” value in assay [3] (6700 nM) was 0.0165 ± 0.035; in assay [3] (20000 nM), 0.052 ± 0.023; with Heptafluorobutyramide (6700 nM), 0.0095 ± 0.035; with Heptafluorobutyramide (20000 nM), -0.0195 ± 0.0064; with Heptafluorobutyramide (60000 nM), 0.032 ± 0.038; with Pentafluoropropionamide (6700 nM), 0.007 ± 0.0071. The “level (log10)” value is 0.001 ± 0.04 with Pentafluoropropionamide (20000 nM); -0.004 ± 0.013 with Pentafluoropropionamide (60000 nM); 0.02 ± 0.042 in assay [4] (6700 nM); 0.066 ± 0.038 in assay [4] (20000 nM); 0.164 ± 0.0035 in assay [4] (60000 nM); -0.0115 ± 0.056 in assay [5] (6700 nM). Moreover, in assay [5] (20000 nM), the “level (log10)” value was -0.0125 ± 0.018.

Turning to lMphg:IL-1alpha, the “level (log10)” value in assay [1] (6700 nM) was 0.0115 ± 0.022; in assay [1] (20000 nM), 0.002 ± 0.038; in assay [1] (60000 nM), 0.0155 ± 0.037; in assay [2] (6700 nM), -0.0215 ± 0.056; in assay [2] (20000 nM), -0.0265 ± 0.035; in assay [2] (60000 nM), 0.029 ± 0.082. The “level (log10)” value is -0.038 ± 0.042 in assay [3] (6700 nM); 0.034 ± 0.085 in assay [3] (20000 nM); -0.034 ± 0.021 with Heptafluorobutyramide (6700 nM); -0.0015 ± 0.018 in the assay with Heptafluorobutyramide (20000 nM); 0.0475 ± 0.053 in the assay with Heptafluorobutyramide (60000 nM); -0.0005 ± 0.016 in the assay with Pentafluoropropionamide (6700 nM). Also, the “level (log10)” value in the assay with Pentafluoropropionamide (20000 nM) is -0.0055 ± 0.0092; with Pentafluoropropionamide (60000 nM), 0.0355 ± 0.083; in assay [4] (6700 nM), -0.005 ± 0.0057; in assay [4] (20000 nM), 0.0045 ± 0.005; in assay [4] (60000 nM) it was 0.009 ± 0.028; in assay [5] (6700 nM), 0.0025 ± 0.022. For the same test system, the “level (log10)” value in assay [5] (20000 nM) is 0.019 ± 0.0085.

lMphg:M-CSF: the “level (log10)” value in assay [1] (6700 nM) was 0.015 ± 0.0028; in assay [1] (20000 nM) it was -0.0245 ± 0.023; in assay [1] (60000 nM) it was -0.027 ± 0.034; in assay [2] (6700 nM) it was -0.0325 ± 0.0078; in assay [2] (20000 nM), -0.0275 ± 0.005; in assay [2] (60000 nM) it was 0.0075 ± 0.022. The “level (log10)” value in assay [3] (6700 nM) is -0.0215 ± 0.021; in assay [3] (20000 nM), -0.005 ± 0.02; in the assay with Heptafluorobutyramide (6700 nM) it was -0.014 ± 0.018; with Heptafluorobutyramide (20000 nM) it was -0.034 ± 0.025; with Heptafluorobutyramide (60000 nM), -0.0135 ± 0.00071; with Pentafluoropropionamide (6700 nM), -0.0185 ± 0.0035. Besides, the “level (log10)” value with Pentafluoropropionamide (20000 nM) is -0.0285 ± 0.0021; with Pentafluoropropionamide (60000 nM), 0.002 ± 0.028; in assay [4] (6700 nM), -0.016 ± 0.0028; in assay [4] (20000 nM), -0.0185 ± 0.015; in assay [4] (60000 nM), 0.016 ± 0.0085; in assay [5] (6700 nM), -0.0245 ± 0.0021. The “level (log10)” value in assay [5] (20000 nM) is -0.0245 ± 0.013.

On to lMphg:SRB, for which the “level (log10)” value in assay [1] (6700 nM) was -0.006 ± 0.0071; in assay [1] (20000 nM), -0.013 ± 0.016; in assay [1] (60000 nM) it was -0.0035 ± 0.012; in assay [2] (6700 nM), -0.008 ± 0.02; in assay [2] (20000 nM), -0.016 ± 0.0057; in assay [2] (60000 nM) it was -0.0095 ± 0.023. Further, the “level (log10)” value was -0.007 ± 0.014 in assay [3] (6700 nM); -0.0045 ± 0.0078 in assay [3] (20000 nM); -0.015 ± 0.0099 in the assay with Heptafluorobutyramide (6700 nM); -0.0025 ± 0.005 with Heptafluorobutyramide (20000 nM); 0 ± 0.02 with Heptafluorobutyramide (60000 nM); 0.004 ± 0.0071 in the assay with Pentafluoropropionamide (6700 nM). In addition, the “level (log10)” value with Pentafluoropropionamide (20000 nM) is -0.0025 ± 0.0092; with Pentafluoropropionamide (60000 nM), -0.001 ± 0.0014; in assay [4] (6700 nM) it was -0.003 ± 0.0071; in assay [4] (20000 nM), -0.0035 ± 0.005; in assay [4] (60000 nM) it was -0.009 ± 0.023; in assay [5] (6700 nM), -0.014 ± 0.017. In addition, the “level (log10)” value in assay [5] (20000 nM) was -0.0125 ± 0.0021.

Take lMphg:SRB-Mphg: the “level (log10)” value was -0.002 ± 0.011 in assay [1] (6700 nM); -0.0015 ± 0.0078 in assay [1] (20000 nM); 0.0045 ± 0.018 in assay [1] (60000 nM); -0.0285 ± 0.012 in assay [2] (6700 nM); -0.022 ± 0.095 in assay [2] (20000 nM); 0.04 ± 0.057 in assay [2] (60000 nM). For the same test system, the “level (log10)” value in assay [3] (6700 nM) was 0.0005 ± 0.0092; in assay [3] (20000 nM), 0.0075 ± 0.0021; with Heptafluorobutyramide (6700 nM), -0.038 ± 0.0071; with Heptafluorobutyramide (20000 nM) it was -0.0175 ± 0.0021; with Heptafluorobutyramide (60000 nM), 0.0155 ± 0.036; with Pentafluoropropionamide (6700 nM) it was -0.0135 ± 0.074. Besides, the “level (log10)” value was 0.0555 ± 0.043 in the assay with Pentafluoropropionamide (20000 nM); 0.0595 ± 0.0078 with Pentafluoropropionamide (60000 nM); -0.0085 ± 0.012 in assay [4] (6700 nM); -0.0025 ± 0.005 in assay [4] (20000 nM); -0.019 ± 0.0028 in assay [4] (60000 nM); -0.0055 ± 0.0064 in assay [5] (6700 nM). Moreover, in assay [5] (20000 nM), the “level (log10)” value was -0.0255 ± 0.011.

For lMphg:sIL-10, the “level (log10)” value in assay [1] (6700 nM) was 0.018 ± 0.02; in assay [1] (20000 nM), -0.023 ± 0.05; in assay [1] (60000 nM) it was -0.0565 ± 0.042; in assay [2] (6700 nM) it was -0.0515 ± 0.029; in assay [2] (20000 nM), -0.117 ± 0.12; in assay [2] (60000 nM) it was 0.0005 ± 0.037. For the same test system, the “level (log10)” value in assay [3] (6700 nM) was -0.005 ± 0.028; in assay [3] (20000 nM), -0.04 ± 0.013; with Heptafluorobutyramide (6700 nM) it was 0.002 ± 0.05; in the assay with Heptafluorobutyramide (20000 nM) it was -0.0445 ± 0.071; in the assay with Heptafluorobutyramide (60000 nM) it was -0.011 ± 0.058; with Pentafluoropropionamide (6700 nM), -0.0095 ± 0.044. Moreover, the “level (log10)” value with Pentafluoropropionamide (20000 nM) was -0.01 ± 0.028; with Pentafluoropropionamide (60000 nM) it was -0.0635 ± 0.12; in assay [4] (6700 nM), -0.116 ± 0.018; in assay [4] (20000 nM), -0.04 ± 0.047; in assay [4] (60000 nM), -0.187 ± 0.031; in assay [5] (6700 nM) it was -0.032 ± 0.02. The “level (log10)” value in assay [5] (20000 nM) was -0.143 ± 0.041.
